The source of these data is US9089605B2, “Quinone derivatives, pharmaceutical compositions, and uses thereof” (Indiana University Research and Technology Corporation, priority 2007, dated 2015).

As a reminder, the melting point is the temperature of the solid-liquid transition. The term GI50 denotes the concentration at which growth is held to half of that of the control. For orientation: IC50 means the point on the concentration scale where inhibition reaches its midpoint.

“And” between values parts separate entries of the source, which are not always exact repeats. Equal values may be shown once.

The test system of one data set is cells. The experiment in a line: Growth inhibition assay (MTS). Format: cell-based. Particulars: for GI50: MTS, compound treatment 24 or 72 h, read-out: Cell Killing (GI50). The method, then: Growth inhibitory data was also collected for all the compounds tested in the redox assay. Following the procedure of Fishel et al, cells were aliquoted into 96 well plates at a concentration of 2-4,000 cells/well in triplicate and allowed to adhere overnight. Cells were then treated with compound for either 24 or 72 h. 3-(4-5-Dimethylthiazol-2-yl)-5-(3-carboxymethoxyphenyl)-2-(4-sulfophenyl)-2H-tetrazolium salt (MTS) was added to the cells following compound treatment and the cells were incubated for an additional 4 hours at 37° C. After incubation with MTS the plates were measured for absorbance at 490 nm. The values were standardized to wells containing media alone.

The next data set deals with Ape1 (Homo sapiens, UniProt P27695). The experiment in a line: Enzymatic redox assay (EMSA, AP-1 DNA binding). The format is biochemical. Particulars: for IC50: EMSA, reduced Ape1, oxidized nuclear extracts (Hey-C2 cells), AP-1 DNA probe; for activity compared with the original carboxylic acids: hydroxyethylamides of 1 and 43a.
Sequence of Ape1 (P27695 whole entry): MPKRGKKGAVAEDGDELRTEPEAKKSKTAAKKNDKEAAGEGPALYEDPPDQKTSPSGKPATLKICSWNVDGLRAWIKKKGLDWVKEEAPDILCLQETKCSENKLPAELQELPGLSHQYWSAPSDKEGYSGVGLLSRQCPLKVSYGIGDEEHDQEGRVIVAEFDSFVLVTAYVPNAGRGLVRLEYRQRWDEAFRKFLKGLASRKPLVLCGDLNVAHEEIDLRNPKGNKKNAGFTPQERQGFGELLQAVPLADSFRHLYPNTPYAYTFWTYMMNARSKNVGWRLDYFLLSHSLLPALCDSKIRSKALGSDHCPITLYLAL

As for `C[C@@H]1NC(=O)N[C@@H]1CCCCCC(=O)NCCCCCCNC(=O)OC(C)(C)C` (hydrate or solvate) [Compound 111, N—(N′-tert-butoxycarbonyl-6-aminohexyl)-6-[(4R,5S)-5-methyl-imidazolidin-2-on-4-yl]hexanamide], the melting point lay within 85 to 87 °C.

Take `CC1(C(=O)O)OC1C1=C(Cl)C(=O)c2ccccc2C1=O` (mixture of isomers) [Compound 71, 3-(3-chloro-1,4-naphthoquinon-2-yl)-2-epoxy-2-methylpropionic acid]: the concentration for 50% growth inhibition (GI50) in the data set with cells is 10 µM. The compound also displayed an IC50 on Ape1 of 4 µM.

`CC(CC1=C(Br)C(=O)c2ccccc2C1=O)C(=O)O` (racemic) [Compound 69b, (2R/S)-3-(3-bromo-1,4-naphthoquinon-2-yl)-2-methylpropionic acid]: in the data set with cells, the GI50 came to 15 µM. Also, on Ape1, the IC50 came to 5 µM.

In the case of `CCCCCCCCC/C(=C\C1=C(C)C(=O)C(OC)=C(OC)C1=O)C(=O)O` [Compound 1, (E)-3-(4,5-dimethoxy-2-methyl-3,6-dioxocyclohexa-1,4-dienyl)-2-nonylpropenoic acid, reference compound], the GI50 in the data set on cells worked out at 35 µM.

As for `COC1=C(OC)C(=O)C(/C=C/C(=O)O)=C(C)C1=O` [Compound 10a, (E)-3-(4,5-dimethoxy-2-methyl-3,6-dioxocyclohexa-1,4-dienyl)-propenoic acid], in the data set with cells, the GI50 was determined as 250 µM. The compound further returned an IC50 at Ape1 of 40 µM.

Turning to `COC1=C(OC)C(=O)C(/C=C(\C)C(=O)O)=C(C)C1=O` [Compound 10b, (E)-3-(4,5-dimethoxy-2-methyl-3,6-dioxocyclohexa-1,4-dienyl)-2-methylpropenoic acid], the melting point was in the range of 134 to 136 °C. Further, the GI50 with cells was determined as 130 µM. Further, the IC50 at Ape1 is 3 to 15 µM and 3 µM.

On to `CC/C(=C\C1=C(C)C(=O)C(OC)=C(OC)C1=O)C(=O)O` [Compound 10c, (E)-3-(4,5-dimethoxy-2-methyl-3,6-dioxocyclohexa-1,4-dienyl)-2-ethylpropenoic acid], for which the melting point was 124 to 131 °C.

On to `CCC/C(=C\C1=C(C)C(=O)C(OC)=C(OC)C1=O)C(=O)O` [Compound 10d, (E)-3-(4,5-dimethoxy-2-methyl-3,6-dioxocyclohexa-1,4-dienyl)-2-propylpropenoic acid], for which the melting point lay within 95 to 99 °C.

Compound `CCCC/C(=C\C1=C(C)C(=O)C(OC)=C(OC)C1=O)C(=O)O` [Compound 10e, (E)-3-(4,5-dimethoxy-2-methyl-3,6-dioxocyclohexa-1,4-dienyl)-2-butylpropenoic acid] had a melting point of 54 to 55 °C. In addition, in the data set on cells, the GI50 came to 85 µM. For the same compound, on Ape1, the IC50 is 3 to 15 µM and 15 µM.

`COC1=C(OC)C(=O)C(/C=C(\C)C(=O)O)=C(Cl)C1=O` [Compound 23, (E)-3-(2-chloro-4,5-dimethoxy-3,6-dioxocyclohexa-1,4-dienyl)-2-methylpropenoic acid] returned a melting point of 183 to 185 °C. The “cell-based activity superior to the methyl derivative 10b, factor” value in the data set on cells (GI50 ratio) stood at 3. Besides, the GI50 with cells was found to be 45 µM. The IC50 at Ape1 was 2.5 µM.

Regarding `C/C(=C\C1=CC(=O)c2ccccc2C1=O)C(=O)O` [Compound 30a, (E)-3-(1,4-naphthoquinon-2-yl)-2-methylpropenoic acid], the GI50 in the data set on cells stood at 20 µM. The IC50 on Ape1 worked out at 2.5 µM.

On to `CCC/C(=C\C1=CC(=O)c2ccccc2C1=O)C(=O)O` [Compound 30b, (E)-3-(1,4-naphthoquinon-2-yl)-2-propylpropenoic acid], for which the melting point was in the range of 156 to 160 °C.

For `CC1=C(/C=C(\C)C(=O)O)C(=O)c2ccccc2C1=O` [Compound 35a, (E)-3-(3-methyl-1,4-naphthoquinon-2-yl)-2-methylpropenoic acid], the melting point fell in the range of 195 to 196 °C. Besides, in the data set with cells, the concentration for 50% growth inhibition (GI50) came to 45 µM. For the same compound, the IC50 on Ape1 was 15 µM.

`CCCC/C(=C\C1=C(C)C(=O)c2ccccc2C1=O)C(=O)O` [Compound 35b, (E)-3-(3-methyl-1,4-naphthoquinon-2-yl)-2-butylpropenoic acid] yielded a melting point of 119 to 121 °C. Also, the concentration for 50% growth inhibition (GI50) with cells was determined as 40 µM. The compound further had a concentration for half-maximal inhibition (IC50) on Ape1 of 25 µM.

With `CCCCCCCCC/C(=C\C1=C(C)C(=O)c2ccccc2C1=O)C(=O)O` [Compound 35c, (E)-3-(3-methyl-1,4-naphthoquinon-2-yl)-2-nonylpropenoic acid], the melting point was 64 to 66 °C.

Turning to `C/C(=C\C1=C(Br)C(=O)c2ccccc2C1=O)C(=O)O` [Compound 39a, (E)-3-(3-bromo-1,4-naphthoquinon-2-yl)-2-methylpropenoic acid], the GI50 with cells amounted to 12.5 µM. This compound also came in with an IC50 at Ape1 of 2 µM.

For the compound `CCC/C(=C\C1=C(Br)C(=O)c2ccccc2C1=O)C(=O)O` [Compound 39b, (E)-3-(3-bromo-1,4-naphthoquinon-2-yl)-2-propylpropenoic acid], the melting point is 145 °C (dec.).

On to `C/C(=C\C1=C(Cl)C(=O)c2ccccc2C1=O)C(=O)O` [Compound 43a, (E)-3-(3-chloro-1,4-naphthoquinon-2-yl)-2-methylpropenoic acid], for which the melting point fell in the range of 229 to 230 °C. The 50% growth inhibitory concentration (GI50) in the data set with cells was determined as 15 µM. The compound further yielded an IC50 at Ape1 of 1 µM.

Regarding `CCC/C(=C\C1=C(Cl)C(=O)c2ccccc2C1=O)C(=O)O` [Compound 43b, (E)-3-(3-chloro-1,4-naphthoquinon-2-yl)-2-propylpropenoic acid], the melting point was 164 °C (dec.).

Take `C/C(=C\C1=C(F)C(=O)c2ccccc2C1=O)C(=O)O` [Compound 52, (E)-3-(3-fluoro-1,4-naphthoquinon-2-yl)-2-methylpropenoic acid]: in the data set on cells, the GI50 stood at 50 µM. At Ape1, this compound displayed an IC50 of 4 µM.

As to `COC1=C(/C=C(\C)C(=O)O)C(=O)c2ccccc2C1=O` [Compound 55, (E)-3-(3-methoxy-1,4-naphthoquinon-2-yl)-2-methylpropenoic acid], the melting point was 205 °C (dec.). For the same compound, the concentration for 50% growth inhibition (GI50) with cells came to 40 µM. For the same compound, the half-inhibitory concentration (IC50) at Ape1 worked out at 0.5 µM.

The compound `CSC1=C(/C=C(\C)C(=O)O)C(=O)c2ccccc2C1=O` [Compound 58, (E)-3-(3-methylsulfanyl-1,4-naphthoquinon-2-yl)-2-methylpropenoic acid] gave a melting point of 195 to 196 °C. The GI50 in the data set with cells was determined as 30 µM. This compound gave an IC50 at Ape1 of 1 µM.

The compound `COCC/C(=C\C1=C(C)C(=O)c2ccccc2C1=O)C(=O)O` [Compound 62a, (E)-3-(3-methyl-1,4-naphthoquinon-2-yl)-2-methoxyethylpropenoic acid] displayed a melting point of 147 to 148 °C. In the data set with cells, the GI50 was 30 µM. This compound showed an IC50 at Ape1 of 10 µM.

The compound `COCC/C(=C\C1=C(Br)C(=O)c2ccccc2C1=O)C(=O)O` [Compound 62b, (E)-3-(3-bromo-1,4-naphthoquinon-2-yl)-2-methoxyethylpropenoic acid] yielded a melting point of 168 to 172 °C. For the same compound, in the data set with cells, the concentration for 50% growth inhibition (GI50) was found to be 25 µM. On Ape1, this compound had an IC50 of 0.5 µM.

As to `COCC/C(=C\C1=C(Cl)C(=O)c2ccccc2C1=O)C(=O)O` [Compound 62c, (E)-3-(3-chloro-1,4-naphthoquinon-2-yl)-2-methoxyethylpropenoic acid], the melting point was 160 °C (dec.). Further, the GI50 in the data set with cells worked out at 30 µM. On Ape1, this compound yielded an IC50 of 3 µM.

In turn, `COCC/C(=C\C1=C(C)C(=O)C(OC)=C(OC)C1=O)C(=O)O` [Compound 64, (E)-3-(4,5-dimethoxy-2-methyl-3,6-dioxocyclohexa-1,4-dienyl)-2-methoxyethylpropenoic acid] showed a melting point of 104 to 106 °C. The GI50 in the data set on cells stood at 200 µM. This compound registered a concentration for half-maximal inhibition (IC50) on Ape1 of 10 µM.

For `O=C(O)CCC1=C(Br)C(=O)c2ccccc2C1=O` [Compound 69a, 3-(3-Bromo-1,4-naphthoquinon-2-yl)-propionic acid], the melting point lay within 156 to 157 °C. Moreover, the GI50 in the data set with cells was 15 µM. The IC50 at Ape1 stood at 5 µM.

For the compound `CCCCCCCCC/C(=C\C1=C(C)C(=O)C(OC)=C(OC)C1=O)C(=O)NCCO` [Compound 72, (E)-N-(2-hydroxyethyl)-3-(3,4-dimethoxy-2-methyl-3,6-dioxocyclohexa-1,4-dienyl)-2-nonylpropenamide], the GI50 in the data set with cells stood at 35 µM. In addition, at Ape1, the IC50 stood at 10 µM and the “activity compared with the original carboxylic acids” value is recorded as “comparable in activity to the original carboxylic acids”.

Consider `C/C(=C\C1=C(Cl)C(=O)c2ccccc2C1=O)C(=O)NCCO` [Compound 73, (E)-N-(2-hydroxyethyl)-3-(3-chloro-1,4-dioxonaphthoquinon-2-yl)-2-methylpropenamide], for which the GI50 in the data set on cells is 7.5 µM. At Ape1, the “activity compared with the original carboxylic acids” value was “comparable in activity to the original carboxylic acids”.

For the compound `COC(=O)/C(C)=C/C1=C(Cl)C(=O)c2ccccc2C1=O` [Compound E-44a], the GI50 in the data set with cells amounted to 17.5 µM. Also, at Ape1, the IC50 stood at 1 µM.

`C/C(=C/C1=C(Cl)C(=O)c2ccccc2C1=O)C(=O)O` [Compound Z-43a, (2Z)-3-(3-chloro-1,4-naphthoquinon-2-yl)-2-methylpropenoic acid] returned a melting point of 166 to 169 °C. For the same compound, the concentration for 50% growth inhibition (GI50) with cells was 30 µM. The 50% inhibitory concentration (IC50) at Ape1 is 1.5 µM.

Take `COC(=O)/C(C)=C\C1=C(Cl)C(=O)c2ccccc2C1=O` [Compound Z-44a, Methyl (2Z)-3-(3-chloro-1,4-naphthoquinon-2-yl)-2-methylpropenoate]: the GI50 in the data set on cells was found to be 20 µM. The compound further came in with an IC50 at Ape1 of 2 µM.
